Experimental data reported in patent US8071633B2, “Pharmaceutical composition for treating spinocerebellar ataxia” (Shionogi & Co., Ltd., priority 2004, dated 2011).

Experiments:
Rolling Mouse Nagoya [1] = assay: Experiment 1: effect of improving ataxia on Rolling Mouse Nagoya (fall index, open-field method); format: in vivo; settings: for effect on improvement of ataxia (fall index): 1 hour after administration, FIG. 1
Excerpt: Experiment 1 Effect of improving ataxia on Rolling Mouse Nagoya
Rolling Mouse Nagoya, a hereditary ataxia mouse, is known as a model mouse for spinocerebellar ataxia and has been reported in many papers (E. Kurihara, N. Fukuda, S. Narumi, T. Matsuo, S. Saji, and Y. Nagawa, Jpn. Pharmacol., Ther., 13, 49-56 (1985), Y. Mano, K. Matsui, E. Toyoshima, and K. Ando, Acta. Neurol. Scand., 73, 352-358 (1986), K. Kinoshita, T. Fujitsuka, M. Yamamura, and Y. Matsuoka, Eur. J. Pharmacol., 274, 65-72 (1995), K. Kinoshita, T. Fukushima, Y, Kodama, J. Sugihara, M. Yamamura, and Y. Matsuoka, Biol. Pharm. Bull., 20, 36-39 (1997)).
Effect of Compound (I-1) for ataxia of Rolling Mouse Nagoya was investigated. The following compounds in Patent Literature 1 and Non-Patent Literature 1 were used as Control Compounds 1 and 2.
An effect on improvement of ataxia was evaluated with a fall index by an open-field method. Mice were left in the center of an open-field (circle open-field, 75 cm in a diameter, 25 divisions). Number of divisions passed and numbers of falls for 5 minutes were counted, and a fall index (numbers of falls/number of divisions passed) was calculated.
Each of the compounds was dissolved in a physiological saline on the day of the experiment. Each compound was orally administered to mice using a sonde for oral administration at the following dosage; Compound (I-1): 1 mg/kg and 3 mg/kg, Control Compound 1: 30 mg/kg and 100 mg/kg, Control Compound 2: 100 mg/kg and 300 mg/kg. Physiological saline alone was administered to mice as a control group. Volume for oral administration was 0.2 mL per 20 g body weight of a mouse.
Effect on improvement of ataxia for each mouse was evaluated 1 hour after administration by the open-field method. Sample numbers were 5 or more in every group.

[2] = test system: cerebellum-injured rat by administration of Ara-C; assay: Experiment 2: effect of improving ataxia on cerebellum-injured rat by administration of Ara-C (fall index, open-field method); format: in vivo, Sprauge-Dawley rats; settings: for effect on improvement of ataxia (fall index): oral once a day for seven days, 24 hours after final administration, FIG. 2; for dosage ratio giving the same level efficacy versus Compound (I-1): oral, repeated administration
Protocol: Experiment 2 Effect of improving ataxia on cerebellum-injured rat by administration of Ara-C
Ara-C (60 mg/kg, Nippon Shinyaku) was subcutaneously administered to Sprauge-Dawley rats (CLEA Japan, Inc) of 2 days old and 3 days old, and the effects of improving ataxia on Compound (I-1), Control Compound 1 and Control Compound 2 at 4 weeks old were investigated.
The effect of improving on ataxia was evaluated with a fall index by an open-field method. Rats were left in the center of an open-filed (circle open-filed, 75 cm in a diameter, 25 divisions), number of divisions passed and numbers of falls for 3 minutes were counted, and a fall index (numbers of falls/number of divisions passed) was calculated.
Each of the compounds was dissolved in a physiological saline on the day of administration. Each compound was orally administered to rats using a sonde for oral administration at the following dosage; Compound (I-1): 0.1 mg/kg, 0.3 mg/kg, 1 mg/kg and 3 mg/kg, Control Compound 1: 30 mg/kg and 100 mg/kg, Control Compound 2: 100 mg/kg and 300 mg/kg. Physiological saline alone was administered to rats as a control group. The compounds were repetitively orally administered one a day for seven days and the effect was investigated 24 hours after the final administration. Volume for oral administration was 0.1 mL per 100 g body weight of a rat. Sample numbers were 5 or more in every group.

Rolling Mouse Nagoya [3] = assay: Experiment 3: effect of improving ataxia on Rolling Mouse Nagoya (fall index, square open-field); format: in vivo; settings: oral 100 mg/kg, 1 hour after administration, FIG. 3
Protocol: Experiment 3 Effect of improving ataxia on Rolling Mouse Nagoya
Effects of the compounds described in Patent Literature 8 (I-3: R=CN, I-1: R=CONH2) and Control Compound 2 on ataxia on Rolling Mouse Nagoya were investigated.
The effect on ataxia was evaluated with a fall index by an open-field method. Mice were left in the center of an open-field (square open-field, 100 cm×100 cm, divided into 25 squares of 20 cm×20 cm), number of squares passed and numbers of falls for 10 minutes were counted, and a fall index (numbers of falls/number of squares passed) was calculated.
Each of the compounds was dissolved in a physiological saline on the day of the experiment. Each compound was orally administered to mice using a sonde for oral administration at the following dosage; Compounds (I-3) and (I-4): 10 mg/kg, Control Compound 2: 100 mg/kg. Volume for oral administration was 0.2 mL per 20 g body weight of a mouse.
Each of the test compound was orally administered just after a fall index of each mouse in the open-field was calculated. A fall index was calculated again 1 hour after administration and the effect of improving ataxia was evaluated. Sample numbers were 5 or more in every group.

[4] = oral, comparison of effective doses

C[C@@H]1OC(=O)N[C@@H]1C(=O)N[C@@H](Cc1cscn1)C(=O)N1CCC[C@H]1C.O.O.O [Compound (I-1)]
effect on improvement of ataxia (fall index) (Rolling Mouse Nagoya [1]; oral 3 mg/kg): superior effect on improvement of ataxia | effect of improving ataxia relative to Control Compound 1 (Rolling Mouse Nagoya [1]; [4]): ≥ 30 times | effect of improving ataxia relative to Control Compound 2 (Rolling Mouse Nagoya [1]; [4]): ≥ 100 times | effect on improvement of ataxia (fall index) ([2]; 0.3 mg/kg or more): superior effect on improvement of ataxia to Control Compounds

CN1C(=O)C[C@H](C(=O)N[C@H](Cc2c[nH]cn2)C(=O)N2CCC[C@@H]2C(N)=O)NC1=O [Control Compound 1]
effect on improvement of ataxia (fall index) (Rolling Mouse Nagoya [1]; oral, only at 100 mg/kg (30 and 100 mg/kg tested)): superior effect of improving ataxia to that in a control group | effect on improvement of ataxia (fall index) ([2]; only at 100 mg/kg (30 and 100 mg/kg tested)): superior effect on improvement of ataxia in comparison of a control group | dosage ratio giving the same level efficacy versus Compound (I-1) [2]: 1/300

NC(=O)[C@H]1CCCN1C(=O)[C@@H](Cc1c[nH]cn1)NC(=O)[C@@H]1CCC(=O)N1 [Control Compound 2]
effect on improvement of ataxia (fall index) (Rolling Mouse Nagoya [1]; oral, even at 300 mg/kg (100 and 300 mg/kg tested)): does not show the improvement effect | effect on improvement of ataxia (fall index) ([2]; even at 300 mg/kg): does not show the improvement effect | dosage ratio giving the same level efficacy versus Compound (I-1) [2]: 1/1000 | effect of improving ataxia (fall index before vs after administration) (Rolling Mouse Nagoya [3]): weak improvement effect
